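Each compound was tested at five concentrations against cells in 96-well plates for 48 hours. At the GI50, growth is halved. The concentration for full growth arrest is given as TGI.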
Key:
Assay in all cases: NCI-60 cell line screen, 48 h
786-0 renal = tested on: 786-0 renal
A498 renal = tested on: A498 renal
A549 NSCLC = tested on: A549 NSCLC
ACHN renal = tested on: ACHN renal
BT-549 breast = tested on: BT-549 breast
CAKI-1 renal = tested on: CAKI-1 renal
CCRF-CEM leukemia = tested on: CCRF-CEM leukemia
COLO 205 colon = tested on: COLO 205 colon
DU-145 prostate = tested on: DU-145 prostate
EKVX NSCLC = tested on: EKVX NSCLC
HCC-2998 colon = tested on: HCC-2998 colon
HCT-116 colon = tested on: HCT-116 colon
HCT-15 colon = tested on: HCT-15 colon
HL-60(TB) leukemia = tested on: HL-60(TB) leukemia
HOP-62 NSCLC = tested on: HOP-62 NSCLC
HOP-92 NSCLC = tested on: HOP-92 NSCLC
HS 578T breast = tested on: HS 578T breast
HT29 colon = tested on: HT29 colon
IGROV1 ovarian = tested on: IGROV1 ovarian
K-562 leukemia = tested on: K-562 leukemia
KM12 colon = tested on: KM12 colon
LOX IMVI melanoma = tested on: LOX IMVI melanoma
M14 melanoma = tested on: M14 melanoma
MALME-3M melanoma = tested on: MALME-3M melanoma
MCF7 breast = tested on: MCF7 breast
MDA-MB-231 breast = tested on: MDA-MB-231 breast
MOLT-4 leukemia = tested on: MOLT-4 leukemia
NCI-H226 lung = tested on: NCI-H226 lung
NCI-H23 lung = tested on: NCI-H23 lung
NCI-H460 lung = tested on: NCI-H460 lung
NCI-H522 lung = tested on: NCI-H522 lung
NCI/ADR-RES ovarian = tested on: NCI/ADR-RES ovarian
OVCAR-3 ovarian = tested on: OVCAR-3 ovarian
OVCAR-4 ovarian = tested on: OVCAR-4 ovarian
OVCAR-5 ovarian = tested on: OVCAR-5 ovarian
OVCAR-8 ovarian = tested on: OVCAR-8 ovarian
PC-3 prostate = tested on: PC-3 prostate
RPMI-8226 leukemia = tested on: RPMI-8226 leukemia
SF-268 CNS = tested on: SF-268 CNS
SF-295 CNS = tested on: SF-295 CNS
SF-539 CNS = tested on: SF-539 CNS
SK-MEL-2 melanoma = tested on: SK-MEL-2 melanoma
SK-MEL-28 melanoma = tested on: SK-MEL-28 melanoma
SK-MEL-5 melanoma = tested on: SK-MEL-5 melanoma
SK-OV-3 ovarian = tested on: SK-OV-3 ovarian
SN12C renal = tested on: SN12C renal
SNB-19 CNS = tested on: SNB-19 CNS
SNB-75 CNS = tested on: SNB-75 CNS
SR leukemia = tested on: SR leukemia
SW-620 colon = tested on: SW-620 colon
T-47D breast = tested on: T-47D breast
TK-10 renal = tested on: TK-10 renal
U251 CNS = tested on: U251 CNS
UACC-257 melanoma = tested on: UACC-257 melanoma
UACC-62 melanoma = tested on: UACC-62 melanoma
UO-31 renal = tested on: UO-31 renal

## CCc1cccc2c3c(sc12)C(c1ccc(F)cc1)C(C#N)=C(/N=C/c1ccc(Cl)cc1)O3 (configuration not stated)
786-0 renal
  GI50: 661 nM
  TGI: > 100000 nM
A498 renal
  GI50: > 100000 nM
  TGI: > 100000 nM
A549 NSCLC
  GI50: 506 nM
  TGI: > 100000 nM
ACHN renal
  GI50: 824 nM
  TGI: > 100000 nM
BT-549 breast
  GI50: 2050 nM
  TGI: 7840 nM
CAKI-1 renal
  GI50: 149 nM
  TGI: > 100000 nM
CCRF-CEM leukemia
  GI50: 324 nM
  TGI: 44200 nM
COLO 205 colon
  GI50: 373 nM
  TGI: 2950 nM
DU-145 prostate
  GI50: 579 nM
  TGI: > 100000 nM
EKVX NSCLC
  GI50: 488 nM
  TGI: > 100000 nM
HCC-2998 colon
  GI50: 1140 nM
  TGI: > 100000 nM
HCT-116 colon
  GI50: 383 nM
  TGI: > 100000 nM
HCT-15 colon
  GI50: 355 nM
  TGI: > 100000 nM
HL-60(TB) leukemia
  GI50: 222 nM
  TGI: 649 nM
HOP-62 NSCLC
  GI50: 312 nM
  TGI: > 100000 nM
HOP-92 NSCLC
  GI50: 22400 nM
  TGI: > 100000 nM
HS 578T breast
  GI50: 255 nM
  TGI: 80200 nM
HT29 colon
  GI50: 323 nM
  TGI: 36500 nM
IGROV1 ovarian
  GI50: 498 nM
  TGI: > 100000 nM
K-562 leukemia
  GI50: 128 nM
  TGI: > 100000 nM
KM12 colon
  GI50: 701 nM
  TGI: > 100000 nM
LOX IMVI melanoma
  GI50: 576 nM
  TGI: > 100000 nM
M14 melanoma
  GI50: 335 nM
  TGI: > 100000 nM
MALME-3M melanoma
  GI50: 384 nM
  TGI: > 100000 nM
MCF7 breast
  GI50: 392 nM
  TGI: > 100000 nM
MDA-MB-231 breast
  GI50: 364 nM
  TGI: > 100000 nM
MOLT-4 leukemia
  GI50: 519 nM
  TGI: > 100000 nM
NCI-H226 lung
  GI50: 379 nM
  TGI: 45900 nM
NCI-H23 lung
  GI50: 578 nM
  TGI: > 100000 nM
NCI-H460 lung
  GI50: 427 nM
  TGI: > 100000 nM
NCI-H522 lung
  GI50: 66 nM
  TGI: 381 nM
NCI/ADR-RES ovarian
  GI50: 192 nM
  TGI: 683 nM
OVCAR-3 ovarian
  GI50: 709 nM
  TGI: > 100000 nM
OVCAR-4 ovarian
  GI50: 97600 nM
  TGI: > 100000 nM
OVCAR-5 ovarian
  GI50: 421 nM
  TGI: > 100000 nM
OVCAR-8 ovarian
  GI50: 500 nM
  TGI: > 100000 nM
PC-3 prostate
  GI50: 501 nM
  TGI: > 100000 nM
RPMI-8226 leukemia
  GI50: 387 nM
  TGI: > 100000 nM
SF-268 CNS
  GI50: 6260 nM
  TGI: > 100000 nM
SF-295 CNS
  GI50: 278 nM
  TGI: > 100000 nM
SF-539 CNS
  GI50: 208 nM
  TGI: 648 nM
SK-MEL-2 melanoma
  GI50: 325 nM
  TGI: 78000 nM
SK-MEL-28 melanoma
  GI50: 492 nM
  TGI: > 100000 nM
SK-MEL-5 melanoma
  GI50: 319 nM
  TGI: 18000 nM
SK-OV-3 ovarian
  GI50: 412 nM
  TGI: > 100000 nM
SN12C renal
  GI50: 430 nM
  TGI: > 100000 nM
SNB-19 CNS
  GI50: 988 nM
  TGI: > 100000 nM
SNB-75 CNS
  GI50: 376 nM
  TGI: 79800 nM
SR leukemia
  GI50: 402 nM
  TGI: 19800 nM
SW-620 colon
  GI50: 471 nM
  TGI: > 100000 nM
T-47D breast
  GI50: 450 nM
  TGI: > 100000 nM
TK-10 renal
  GI50: 6800 nM
  TGI: > 100000 nM
U251 CNS
  GI50: 369 nM
  TGI: 34200 nM
UACC-257 melanoma
  GI50: 43400 nM
  TGI: > 100000 nM
UACC-62 melanoma
  GI50: 352 nM
  TGI: > 100000 nM
UO-31 renal
  GI50: 553 nM
  TGI: > 100000 nM

Reference: PubChem BioAssay (NCI)
